US11535592B2, “Antimicrobial compounds, compositions, and method” (University of Kentucky Research Foundation, priority 2019, dated 2022)
Where two headings read alike, the source gives them in different places.

Columns and labels:
[1] = tested on: Porphyromonas gingivalis 381; experiment: Antimicrobial screening by colorimetric WST-1 assay against P. gingivalis; type: cell-based; details: P. gingivalis 381, FIG. 2, read-out: growth inhibition
Description: (§1) The following bacterial strains were used in these studies: Porphyromonas gingivalis 381, Actinomyces naeslundii ATCC 49340, Streptococcus sanguinis ATCC 10556, Veillonella parvula ATCC 10790, Aggregatibacter actinomycetemcomitans JP2, and Fusobacterium nucleatum ATCC 25586. All bacterial strains were initially grown on blood agar plates (BBL, Becton Dickinson, Sparks, Md., USA) from a frozen stock and incubated in appropriate aerobic (for S. sanguinis) or anaerobic (for P. gingivalis, A. naeslundii, V. parvula, A. actinomycetemcomitans, and F. nucleatum) conditions at 37° C. for 24 h or 3 days, respectively. Then, a liquid culture was started for each strain in 3 mL of Brain Hearth infusion (BHI) broth alone or supplemented with 5 μg/mL of hemin and 1 μg/mL of menadione in the case of P. gingivalis. Overnight cultures were inoculated in fresh broth and allowed to reach logarithmic growth for 3-4 h, time at which antimicrobial activity of different treatments was evaluated.
Initial screening for testing the antimicrobial effect of zafirlukast derivatives (4a, 4b, 11a, 11b, 12a, 21a, 21b, 22a, 22b, 23a, and 23b) was performed using the colorimetric water-soluble tetrazolium-1 (WST-1) assay, which serves as a surrogate marker for cell proliferation and viability. Bacterial strains (10^6/well) grown logarithmically in broth (90 μL) using 96-wells plates, were exposed to different treatments for 2 h and then 15 μL of WST-1 reagent (Roche, Manheim, Germany) were added to each well. Plates were incubated for 2 h under appropriate culture conditions and then absorbance was measured at 450 nm, with a reference wavelength of 600 nm, using SpectraMax M2 plate reader (Molecular Devices, Sunnyvale, Calif., USA). The percentage of inhibitory effect (i.e., % growth inhibition) was calculated using the optical densities (ODs) of bacterial metabolic activity, under different experimental conditions according to the following formula: 100×[OD (control)−OD (experimental)/OD (control)]. For P. gingivalis, control cultures were treated only with medium and experimental cultures treated with DMSO (vehicle for zafirlukast and its derivatives) and 1 μg/mL of the antibiotic tetracycline. When tested against A. naeslundii, A. actinomycetemcomitans, S. sanguinis, V. parvula, and F. nucleatum control cultures were treated only with medium and experimental cultures were treated with DMSO (vehicle for zafirlukast and its derivatives), antibiotic penicillin/streptomycin −1× (100 U/mL of penicillin and 100 μg/mL of streptomycin) for Gram-positives and 1 μg/mL of tetracycline for Gram-negative anaerobic bacteria.

[2] = tested on: OKF6 oral epithelial cells (OKF6/hTERT); experiment: Cell viability of oral epithelial cells (apoptosis and necrosis) by flow cytometry, FITC-Annexin V / propidium iodide; type: cell-based, human; details: 24 h
Description: Cytotoxic effect of zafirlukast derivatives in oral epithelial cells. The immortalized oral keratinocyte cell line OKF6/hTERT (OKF6) was used for viability assays in response to zafirlukast derivatives 22b, 23a, and 23b as previously reported. 3, ^4 Cells were cultured in keratinocyte-serum free medium (SFM) supplemented with bovine pituitary extract (25 μg/mL) and recombinant epidermal growth factor (0.2 ng/mL) (Ker-SFM). Cells were maintained at 37° C. in a humidified incubator with 5% CO2. Cytotoxic effects of zafirlukast derivatives were confirmed by flow cytometry analysis (FACS). After different treatments, attached OKF6 cells were harvested by trypsinization and mixed with cells that were previously rescued from supernatants. Cells were washed with PBS at 1100 rpm for 5 min and further labeled with 5 μL of FITC-Annexin V and 5 μL of propidium iodide (BD Pharmingen, San Jose, Calif.) for 15 min at room temperature. Labeled cells were analyzed by FACS, with at least 10,000 events read at wavelengths averaging 488 nm for excitation and 530 nm for emission in a flow cytometer FACSCalibur (Becton Dickinson, San Jose, Calif.).

[3] = tested on: OKF6 oral epithelial cells (OKF6/hTERT); experiment: cells; type: cell-based; details: 24 h; for IC50: Homo sapiens, OKF6; for Dead (%) / Percentage of OKF6 cells alive / Alive (%): human
Description: Cytotoxic effect of zafirlukast derivatives in oral epithelial cells. The immortalized oral keratinocyte cell line OKF6/hTERT (OKF6) was used for viability assays in response to zafirlukast derivatives 22b, 23a, and 23b as previously reported. 3, ^4 Cells were cultured in keratinocyte-serum free medium (SFM) supplemented with bovine pituitary extract (25 μg/mL) and recombinant epidermal growth factor (0.2 ng/mL) (Ker-SFM). Cells were maintained at 37° C. in a humidified incubator with 5% CO2.
[…] Cells were then harvested by trypsinization, washed with DMEM medium supplemented with 5% fetal bovine serum at 1100 rpm and resuspended in fresh Ker-SFM. Equal volumes of cell suspension and trypan blue were mixed and 10 μL evaluated in the automated cell counter (Countess II FL) (Life Technologies, Singapure) to determine percentage of alive and death cells. These experiments were performed in two independent experiments by duplicate. […] The IC50 values were calculated by using the Quest Graph™ IC50 calculator (ATT Bioquest, Inc, https://www.aatbio.com/tools/ic50-calculator).

[4] = tested on: Porphyromonas gingivalis 381; experiment: Bactericidal effect on P. gingivalis by colony forming units (CFU) assay; type: cell-based; details: 24 h exposure, 7 days incubation, FIG. 4; for bacteriostatic or bactericidal: 100 μM, CFU
Description: as §1
P. gingivalis (10^6/well) grown in appropriate medium and anaerobic conditions was exposed to zafirlukast derivatives dissolved in DMSO for 24 h and further 50 μL of bacterial culture dilutions (1:400) were spread onto blood agar plates. Numbers of CFUs were obtained after 7 days of incubation in appropriate anaerobic conditions.

[5] = 0-100 μM in triplicate, Quest Graph IC50 calculator, read-out: IC50 (OKF6 cell viability)

`COc1cc(C(=O)NS(=O)(=O)c2ccccc2)ccc1Cc1cn(C)c2ccccc12` [Compound 4a] was tested, and the inhibition at 100 µM [1] was > 60%.
In the case of `COc1cc(C(=O)NS(=O)(=O)c2ccccc2C)ccc1Cc1cn(C)c2ccccc12` [Compound 4b], the inhibition at 100 µM [1] is reported as > 60%.
For `O=C(NS(=O)(=O)c1ccccc1)c1ccc(Cc2c[nH]c3ccccc23)cc1` [Compound 11a], the inhibition at 10 µM [1] was ~40%.
Compound `Cc1ccccc1S(=O)(=O)NC(=O)c1ccc(Cc2c[nH]c3ccccc23)cc1` [Compound 11b] has an inhibition at 10 µM [1] of ~90%.
With `Cn1cc(Cc2ccc(C(=O)NS(=O)(=O)c3ccccc3)cc2)c2ccccc21` [Compound 12a] the inhibition at 10 µM [1] was 90 to 100%.
In the case of `COc1ccc(Cc2c[nH]c3ccccc23)cc1C(=O)NS(=O)(=O)c1ccccc1` [Compound 21a], the inhibition at 10 µM [1] is reported as ~40%.
Compound `COc1ccc(Cc2c[nH]c3ccccc23)cc1C(=O)NS(=O)(=O)c1ccccc1C` [Compound 21b] has an inhibition at 10 µM [1] of ~80%.
`COc1ccc(Cc2cn(C)c3ccccc23)cc1C(=O)NS(=O)(=O)c1ccccc1C` [Compound 22b] was tested, and the “Apoptosis (%)” value ([2]; human, 1 μM) was 23.7 ± 16.6%, the “Necrosis (%)” value ([2]; human, 1 μM) was 2.16 ± 1.62% and the Viable ([2]; human, 1 μM) was 74.1 ± 18.1%. The “Apoptosis (%)” value ([2]; human, 10 μM) was 29.6 ± 19.1%, the “Necrosis (%)” value ([2]; human, 10 μM) was 1.37 ± 0.39% and the Viable ([2]; human, 10 μM) was 69.1 ± 18.9%. It also gave an inhibition at 1 µM [1] of 15 to 40%, an inhibition at 10 µM [1] of 90 to 100% and an IC50 [3, 5] of 16 µM. For the same compound, the “Dead (%)” value ([3]; 1 μM) was 8.5 ± 1.7%, the “Percentage of OKF6 cells alive” value ([3]; 1 μM) was 69.3 ± 9.6% and the “Percentage of OKF6 cells alive” value ([3]; 2.5 μM) was 41.0 ± 1.0%. The “Percentage of OKF6 cells alive” value ([3]; 5 μM) was 66.0 ± 5.6%, the “Alive (%)” value ([3]; 10 μM) was 40.8 ± 16.6% and the “Dead (%)” value ([3]; 10 μM) was 59.3 ± 16.6%. For the same compound, the “Percentage of OKF6 cells alive” value ([3]; 10 μM) was 38.3 ± 4.9%, the “Percentage of OKF6 cells alive” value ([3]; 15 μM) was 41.0 ± 17.3% and the “Percentage of OKF6 cells alive” value ([3]; 20 μM) was 22.7 ± 11.7%. The “Percentage of OKF6 cells alive” value ([3]; 25 μM) was 47.0 ± 20.0%, the “Percentage of OKF6 cells alive” value ([3]; 50 μM) was 33.0 ± 15.1% and the “Percentage of OKF6 cells alive” value ([3]; 100 μM) was 12.3 ± 11.0%.
For `COc1ccc(Cc2cn(C)c3ccc([N+](=O)[O-])cc23)cc1C(=O)NS(=O)(=O)c1ccccc1` [Compound 23a], the “Apoptosis (%)” value ([2]; human, 1 μM) was 38.5 ± 27.5%, the “Necrosis (%)” value ([2]; human, 1 μM) was 0.69 ± 0.46% and the Viable ([2]; human, 1 μM) was 60.9 ± 27.4%. The “Apoptosis (%)” value ([2]; human, 10 μM) was 44.2 ± 26.9%, the “Necrosis (%)” value ([2]; human, 10 μM) was 2.81 ± 2.31% and the Viable ([2]; human, 10 μM) was 53.2 ± 29.0%. The inhibition at 1 µM [1] was 15 to 40%, the inhibition at 10 µM [1] was 90 to 100% and the IC50 [3, 5] was 54 µM. The “Dead (%)” value ([3]; 1 μM) was 20.5 ± 16.4%, the “Percentage of OKF6 cells alive” value ([3]; 1 μM) was 68.0 ± 5.0% and the “Percentage of OKF6 cells alive” value ([3]; 2.5 μM) was 70.7 ± 10.3%. The “Percentage of OKF6 cells alive” value ([3]; 5 μM) was 55.3 ± 8.1%, the “Alive (%)” value ([3]; 10 μM) was 73.8 ± 4.1% and the “Dead (%)” value ([3]; 10 μM) was 26.3 ± 4.1%. For the same compound, the “Percentage of OKF6 cells alive” value ([3]; 10 μM) was 49.0 ± 16.1%, the “Percentage of OKF6 cells alive” value ([3]; 15 μM) was 50.3 ± 9.5% and the “Percentage of OKF6 cells alive” value ([3]; 20 μM) was 48.0 ± 6.1%. The “Percentage of OKF6 cells alive” value ([3]; 25 μM) was 54.0 ± 7.8%, the “Percentage of OKF6 cells alive” value ([3]; 50 μM) was 45.3 ± 13.1% and the “Percentage of OKF6 cells alive” value ([3]; 100 μM) was 15.7 ± 7.1%. For the same compound, the bacteriostatic or bactericidal [4] was “bactericidal”, the inhibition at 1 µM ([4]; Porphyromonas gingivalis, 381, 1 μM, read-out: growth inhibition (CFU)) was ~60% and the inhibition at 10 µM ([4]; Porphyromonas gingivalis, 381, 10 μM, read-out: growth inhibition (CFU)) was 100%.
For `COc1ccc(Cc2cn(C)c3ccc([N+](=O)[O-])cc23)cc1C(=O)NS(=O)(=O)c1ccccc1C` [Compound 23b], the “Apoptosis (%)” value ([2]; human, 1 μM) was 24.8 ± 13.9%, the “Necrosis (%)” value ([2]; human, 1 μM) was 1.08 ± 0.17% and the Viable ([2]; human, 1 μM) was 74.4 ± 13.8%. For the same compound, the “Apoptosis (%)” value ([2]; human, 10 μM) was 35.8 ± 21.3%, the “Necrosis (%)” value ([2]; human, 10 μM) was 2.23 ± 1.18% and the Viable ([2]; human, 10 μM) was 61.7 ± 22.2%. For the same compound, the inhibition at 1 µM [1] was 15 to 40%, the inhibition at 10 µM [1] was 90 to 100% and the IC50 [3, 5] was > 100 µM. For the same compound, the IC50 ([3]; estimated beyond the highest concentration tested (100 μM), read-out: IC50 (OKF6 cell viability), estimated) was ~230 µM, the “Dead (%)” value ([3]; 1 μM) was 17.3 ± 9.5% and the “Percentage of OKF6 cells alive” value ([3]; 1 μM) was 83.7 ± 9.1%. The “Percentage of OKF6 cells alive” value ([3]; 2.5 μM) was 87.7 ± 3.8%, the “Percentage of OKF6 cells alive” value ([3]; 5 μM) was 87.0 ± 2.6% and the “Alive (%)” value ([3]; 10 μM) was 48.3 ± 17.5%. The “Dead (%)” value ([3]; 10 μM) was 51.8 ± 17.5%, the “Percentage of OKF6 cells alive” value ([3]; 10 μM) was 83.0 ± 5.3% and the “Percentage of OKF6 cells alive” value ([3]; 15 μM) was 79.0 ± 5.3%. For the same compound, the “Percentage of OKF6 cells alive” value ([3]; 20 μM) was 75.3 ± 3.8%, the “Percentage of OKF6 cells alive” value ([3]; 25 μM) was 77.0 ± 2.6% and the “Percentage of OKF6 cells alive” value ([3]; 50 μM) was 69.0 ± 7.5%. For the same compound, the “Percentage of OKF6 cells alive” value ([3]; 100 μM) was 58.7 ± 4.2% and the bacteriostatic or bactericidal [4] was “bactericidal”.
In the case of `COc1cc(C(=O)NS(=O)(=O)c2ccccc2C)ccc1Cc1cn(C)c2ccc(NC(=O)OC3CCCC3)cc12` [Zafirlukast, zafirlukast, reference compound], the “Apoptosis (%)” value ([2]; 25 μM, FACS (Table 3, FIG. 7)) is reported as 90.8 ± 2.5%, the “Necrosis (%)” value ([2]; 25 μM, FACS (Table 3, FIG. 7)) is reported as 0.65 ± 0.58% and the Viable ([2]; 25 μM, FACS (Table 3, FIG. 7)) is reported as 8.53 ± 3.08%. For the same compound, the “Alive (%)” value ([3]; 25 μM) was 17.3 ± 5.2% and the “Dead (%)” value ([3]; 25 μM) was 82.8 ± 5.2%.
